According to patent EP0252028A1 (priority 1986, dated 1988):

Assays:
Cryptococcus albidus = assay: agar diffusion test, growth inhibition zones; format: cell-based
Candida albicans 2 = assay: agar diffusion test, growth inhibition zones; format: cell-based
[1] = tested on: Staphylococcus epidermis ATCC 14990; assay: agar diffusion test, growth inhibition zones; format: cell-based
[2] = tested on: Mycobacterium aurum NCTC 10437; assay: agar diffusion test, growth inhibition zones
Experimental: The antitubercular activity was evaluated in in vitro tests against Mycobacterium aurum.

Candida albicans 1 = assay: agar diffusion test, growth inhibition zones; format: cell-based
[3] = tested on: Salmonella tiphymurium ATCC 13311; assay: agar diffusion test, growth inhibition zones; format: cell-based
Candida albicans PCA6 = assay: agar diffusion test, growth inhibition zones; format: cell-based
[4] = tested on: Bacillus subtilis ATCC 6051; assay: agar diffusion test, growth inhibition zones; format: cell-based
[5] = tested on: Escherichia coli ATCC 10538; assay: agar diffusion test, growth inhibition zones; format: cell-based
Aspergillus fumigatus = assay: agar diffusion test, growth inhibition zones; format: cell-based
Candida parapsilosis = assay: agar diffusion test, growth inhibition zones; format: cell-based
Sarcina lutea ATCC 9341 = assay: agar diffusion test, growth inhibition zones; format: cell-based
[6] = tested on: Streptococcus faecalis ATCC 8043; assay: agar diffusion test, growth inhibition zones; format: cell-based
[7] = tested on: Enterobacter aerogenes ATCC 13047; assay: agar diffusion test, growth inhibition zones; format: cell-based
[8] = tested on: Staphylococcus aureus ATCC 9144; assay: agar diffusion test, growth inhibition zones; format: cell-based
Torulopsis Candida = assay: agar diffusion test, growth inhibition zones; format: cell-based
Candida tropicalis = assay: agar diffusion test, growth inhibition zones; format: cell-based
Aspergillus Niger = assay: agar diffusion test, growth inhibition zones; format: cell-based
[9] = acute toxicity (LD50) in mice; settings: mouse, in vivo, iv; CD1 mice
Text: The nitrofurylbenzimidazoles (I) prepared via the process of the present invention are suitable for being compounded into topically administrable ointments and creams. […] Examples of typical formulations (suited for both topical application and systemic administration) are illustrated in the above-mentioned UK patents 1,072;735 and 1,094,903.

Cryptococcus neoformans = assay: agar diffusion test, growth inhibition zones; format: cell-based
Rodutorula rubra = assay: agar diffusion test, growth inhibition zones; format: cell-based
Aspergillus Flavus = assay: agar diffusion test, growth inhibition zones; format: cell-based

Row | SMILES | Growth inhibition zones (Cryptococcus albidus) | Growth inhibition zones (Candida albicans 2) | Growth inhibition zones [1] | Growth inhibition zones [2] | Growth inhibition zones (Candida albicans 1) | Growth inhibition zones [3] | Growth inhibition zones (Candida albicans PCA6) | Growth inhibition zones [4] | Growth inhibition zones [5] | Growth inhibition zones (Aspergillus fumigatus) | Growth inhibition zones (Candida parapsilosis) | Growth inhibition zones (Sarcina lutea ATCC 9341) | Growth inhibition zones [6] | Growth inhibition zones [7] | Growth inhibition zones [8] | other results
1 | O=[N+]([O-])c1ccc(-c2nc3ccccc3[nH]2)o1 [Es. 1, 2-(5'-nitro-2'-furyl)-benzimidazole] | 33 mm | 42 mm | 35 mm | 24 mm | 25 mm | 20 mm | 40 mm | 36 mm | 22 mm | 22 mm | 37 mm | 15 mm | 24 mm | 18 mm | 35 mm | –
2 | Cc1ccc2[nH]c(-c3ccc([N+](=O)[O-])o3)nc2c1 [Es. 2, 5-methyl-2-(5'-nitro-2'-furyl)-benzimidazole] | 25 mm | 33 mm | 32 mm | 13 mm | 18 mm | 12 mm | 32 mm | 30 mm | 13 mm | 13 mm | 29 mm | 12 mm | 23 mm | 16 mm | 30 mm | –
3 | O=[N+]([O-])c1ccc(-c2nc3cc(F)ccc3[nH]2)o1 [Es. 3, 5-fluoro-2-(5'-nitro-2'-furyl)-benzimidazole] | 35 mm | 34 mm | 29 mm | 35 mm | 34 mm | 23 mm | 34 mm | 27 mm | 21 mm | 30 mm | 34 mm | 27 mm | 33 mm | – | 28 mm | Growth inhibition zones (Torulopsis Candida): 42 mm; Growth inhibition zones (Candida tropicalis): 25 mm; Growth inhibition zones (Aspergillus Niger): 38 mm; LD50 [9]: 240 mg/kg; Growth inhibition zones (Cryptococcus neoformans): 45 mm; Growth inhibition zones (Rodutorula rubra): 35 mm; Growth inhibition zones (Aspergillus Flavus): 30 mm
4 | O=[N+]([O-])c1ccc2[nH]c(-c3ccc([N+](=O)[O-])o3)nc2c1 [Es. 4, 5-nitro-2-(5'-nitro-2'-furyl)-benzimidazole] | – | – | 32 mm | 15 mm | – | 15 mm | – | 30 mm | 15 mm | – | – | 12 mm | 20 mm | 14 mm | 30 mm | –
5 | O=[N+]([O-])c1ccc(-c2nc3cc(C(F)(F)F)ccc3[nH]2)o1 [Es. 5, 5-trifluoromethyl-2-(5'-nitro-2'-furyl)-benzimidazole] | – | 22 mm | 30 mm | 22 mm | – | 13 mm | 23 mm | 26 mm | 11 mm | – | 20 mm | 14 mm | 21 mm | – | 30 mm | –
6 | O=[N+]([O-])c1ccc(-c2nc3cc(Cl)ccc3[nH]2)o1 [Es. 6, 5-chloro-2-(5'-nitro-2'-furyl)-benzimidazole] | – | 22 mm | 30 mm | 13 mm | 15 mm | 14 mm | 22 mm | 23 mm | 15 mm | – | 21 mm | – | 22 mm | 12 mm | 28 mm | –
